Source: patent US20230265151A1, “GIP/GLP1 CO-AGONIST COMPOUNDS” (priority 2020, published 2023)
Like-named read-outs stand apart in the source and are kept apart here. *1 amine or outer side, *2 acyl side, *3 side chain or, on linkers, in order; H or OH if unused. Where a SMILES comes first, the peptide text is derived from it. Side-chain parts run from the residue outwards. [ ]: non-standard residue; d: D form. The star is where a group is joined. Decanoyl(10-(4-HOOC-PhO)) = O=C(O)c1ccc(OCCCCCCCCCC(=O)*)cc1; αMePhe(2-F) = C[C@](N)(Cc1ccccc1F)C(=O)O; γGlu = O=C(O)[C@H](CCC(=O)[*:2])N[*:1]; αMeY = C[C@](N)(Cc1ccc(O)cc1)C(=O)O; αMeL = CC(C)C[C@](C)(N)C(=O)O; Orn = NCCC[C@H](N)C(=O)O; AEEA = NCCOCCOCC(=O)O; Aib = CC(C)(N)C(=O)O

Tests used:
Format in all cases: cell-based
[1] = biological target: T1, hGIPR (Homo sapiens, UniProt P48546); assay: Functional cAMP formation (HTRF) in HEK-293 clonal cells expressing hGIPR, 0.1% bovine casein, without or with 1.0% human serum albumin; conditions: for EC50: geometric mean
T1 construct: expressed in transfected cells
T1 sequence (P48546 22-466): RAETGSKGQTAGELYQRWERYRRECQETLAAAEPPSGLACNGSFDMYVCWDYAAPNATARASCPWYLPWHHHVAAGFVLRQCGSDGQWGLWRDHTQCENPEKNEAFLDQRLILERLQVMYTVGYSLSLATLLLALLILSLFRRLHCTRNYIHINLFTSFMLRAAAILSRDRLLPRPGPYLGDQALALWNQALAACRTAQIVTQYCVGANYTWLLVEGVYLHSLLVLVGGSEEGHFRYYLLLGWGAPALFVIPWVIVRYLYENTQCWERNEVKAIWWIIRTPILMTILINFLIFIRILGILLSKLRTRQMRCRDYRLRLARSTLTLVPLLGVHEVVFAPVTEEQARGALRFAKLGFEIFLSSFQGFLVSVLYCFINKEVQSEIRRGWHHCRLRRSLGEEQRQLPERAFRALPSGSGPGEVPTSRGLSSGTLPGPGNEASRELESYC
In short: (§1)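 Cells were stimulated with peptide for 30 min at 37° C, then lysed in buffer carrying cAMP-d2 and anti-cAMP Eu3+-cryptate for a competitive HTRF read after at least 60 min at room temperature. The 665/620 nm ratio was converted to nM cAMP against a standard curve.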

[2] = biological target: hGLP-1R (Homo sapiens, UniProt P43220); assay: Functional cAMP formation (HTRF) in HEK-293 clonal cells expressing hGLP-1R, 0.1% bovine casein, without or with 1.0% human serum albumin; set-up: expressed in transfected cells; conditions: for Emax: arithmetic mean; for EC50: geometric mean
In short: as §1

[3] = biological target: T2, hGCGR (Homo sapiens, UniProt P47871); assay: Functional cAMP formation (HTRF) in HEK-293 clonal cells expressing hGCGR, 0.1% bovine casein, without or with 1.0% human serum albumin
T2 construct: expressed in transfected cells
In short: as §1

[4] = HEK293, read-out: hGIPR Emax, % ± SEM, cAMP, 37° C., 0.1% bovine casein and 1.0% human serum albumin, percent of maximal response to GIP(1-42)NH2
[5] = hGIPR EC50, nM (SEM, n), cAMP, 37° C., 0.1% bovine casein (no human serum albumin)
[6] = HEK293, read-out: hGLP-1R Emax, % ± SEM, cAMP, 37° C., 0.1% bovine casein, percent of maximal response to GLP-1(7-36)NH2
[7] = hGLP-1R EC50, nM (SEM, n), cAMP, 37° C., 0.1% bovine casein (no human serum albumin)
[8] = hGCGR EC50, nM (SEM, n), cAMP, 37° C., 0.1% bovine casein (no human serum albumin), geometric mean
[9] = hGCGR EC50, nM (SEM, n), cAMP, 37° C., 0.1% bovine casein and 1.0% human serum albumin, geometric mean (SEM, n)

hGLP-1R, sequence (P43220 24-463): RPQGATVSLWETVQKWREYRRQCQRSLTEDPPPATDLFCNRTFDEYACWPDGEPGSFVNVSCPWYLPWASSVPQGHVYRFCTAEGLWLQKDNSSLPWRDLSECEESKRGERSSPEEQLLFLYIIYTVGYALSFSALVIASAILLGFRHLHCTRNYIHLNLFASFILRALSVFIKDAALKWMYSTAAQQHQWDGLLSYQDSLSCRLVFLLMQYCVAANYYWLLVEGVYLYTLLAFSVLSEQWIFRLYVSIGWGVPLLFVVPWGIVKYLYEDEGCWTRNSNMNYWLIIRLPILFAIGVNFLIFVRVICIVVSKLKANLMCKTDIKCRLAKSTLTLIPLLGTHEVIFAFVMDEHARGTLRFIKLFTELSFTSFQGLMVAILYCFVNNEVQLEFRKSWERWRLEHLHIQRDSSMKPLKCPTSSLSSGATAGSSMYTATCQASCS
T2 sequence (P47871 26-477): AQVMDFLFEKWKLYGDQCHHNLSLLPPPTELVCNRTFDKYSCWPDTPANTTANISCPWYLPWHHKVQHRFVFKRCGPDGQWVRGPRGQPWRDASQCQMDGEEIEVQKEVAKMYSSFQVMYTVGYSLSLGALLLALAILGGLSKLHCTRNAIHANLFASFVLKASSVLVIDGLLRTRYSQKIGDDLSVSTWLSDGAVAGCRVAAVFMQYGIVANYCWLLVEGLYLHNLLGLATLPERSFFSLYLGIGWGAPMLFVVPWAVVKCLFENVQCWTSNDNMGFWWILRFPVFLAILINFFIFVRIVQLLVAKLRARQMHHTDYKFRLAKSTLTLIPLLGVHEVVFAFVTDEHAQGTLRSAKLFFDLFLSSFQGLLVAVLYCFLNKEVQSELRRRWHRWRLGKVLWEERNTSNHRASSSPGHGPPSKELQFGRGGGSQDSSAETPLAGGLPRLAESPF

| SMILES | Emax [1, 4] | EC50 [1, 5] | Emax [2, 6] | EC50 [2, 7] | EC50 [3, 8] | EC50 [3, 9] | also measured |
| --- | --- | --- | --- | --- | --- | --- | --- |
| CC[C@H](C)[C@H](NC(=O)[C@H](CCCN)NC(=O)[C@H](CC(=O)O)NC(=O)[C@H](CC(C)C)NC(=O)[C@](C)(CC(C)C)NC(=O)[C@@H](NC(=O)C(C)(C)NC(=O)[C@@H](NC(=O)[C@H](CC(=O)O)NC(=O)[C@H](CO)NC(=O)[C@@H](NC(=O)[C@](C)(Cc1ccccc1F)NC(=O)[C@@H](NC(=O)CNC(=O)[C@H](CCC(=O)O)NC(=O)C(C)(C)NC(=O)[C@@H](N)Cc1ccc(O)cc1)[C@@H](C)O)[C@@H](C)O)C(C)C)[C@@H](C)CC)C(=O)N[C@@H](C)C(=O)N[C@@H](CCC(N)=O)C(=O)NC(C)(C)C(=O)N[C@@H](CCCCNC(=O)COCCOCCNC(=O)COCCOCCNC(=O)CC[C@H](NC(=O)CCCCCCCCCOc1ccc(C(=O)O)cc1)C(=O)O)C(=O)N[C@@H](Cc1ccccc1)C(=O)N[C@H](C(=O)N[C@H](CCC(=O)O)C(=O)N[C@@](C)(Cc1ccc(O)cc1)C(=O)N[C@@H](CC(C)C)C(=O)N[C@H](C(=O)N[C@@H](CCC(=O)O)C(=O)NCC(=O)NCC(=O)N1CCC[C@H]1C(=O)N[C@@H](CO)C(=O)N[C@@H](CO)C(=O)NCC(=O)N[C@@H](C)C(=O)N1CCC[C@H]1C(=O)N1CCC[C@H]1C(=O)N1CCC[C@H]1C(=O)N[C@@H](CO)C(=O)N[C@@H](CCCCNC(=O)COCCOCCNC(=O)COCCOCCNC(=O)CC[C@H](NC(=O)CCCCCCCCCOc1ccc(C(=O)O)cc1)C(=O)O)C(N)=O)[C@@H](C)CC)[C@@H](C)CC [Example 383] (H-Y[Aib]EGT[αMePhe(2-F)]TSDV[Aib]I[αMeL]LD[Orn]IAQ[Aib]K([AEEA-AEEA-γGlu-Decanoyl(10-(4-HOOC-PhO))])FI[dE][αMeY]LIEGGPSSGAPPPSK([AEEA-AEEA-γGlu-Decanoyl(10-(4-HOOC-PhO))])-NH2) | 82.8% | 0.0147 nM | 105% | 0.306 nM | > 9950 nM | > 9950 nM | Emax ([1]; HEK293, read-out: hGIPR Emax, % ± SEM, cAMP, 37° C., 0.1% bovine casein, percent of maximal response to GIP(1-42)NH2, arithmetic mean): 100% |
| CC[C@H](C)[C@H](NC(=O)[C@H](CC(C)C)NC(=O)[C@](C)(Cc1ccc(O)cc1)NC(=O)[C@H](CCCCNC(=O)COCCOCCNC(=O)COCCOCCNC(=O)CC[C@H](NC(=O)CCCCCCCCCCOc1ccc(C(=O)O)cc1)C(=O)O)NC(=O)[C@@H](NC(=O)[C@H](Cc1ccccc1)NC(=O)[C@H](CCCN)NC(=O)C(C)(C)NC(=O)[C@H](CCC(N)=O)NC(=O)[C@H](C)NC(=O)[C@H](CCC(N)=O)NC(=O)[C@H](CCCN)NC(=O)[C@H](CC(=O)O)NC(=O)[C@H](CC(C)C)NC(=O)[C@](C)(CC(C)C)NC(=O)[C@@H](NC(=O)C(C)(C)NC(=O)[C@H](Cc1ccncc1)NC(=O)[C@H](CC(=O)O)NC(=O)[C@H](CO)NC(=O)[C@@H](NC(=O)[C@](C)(Cc1ccccc1F)NC(=O)[C@@H](NC(=O)CNC(=O)[C@H](CCC(=O)O)NC(=O)C(C)(C)NC(=O)[C@@H](N)Cc1ccc(O)cc1)[C@@H](C)O)[C@@H](C)O)[C@@H](C)CC)[C@@H](C)CC)C(=O)N[C@@H](CCCCNC(=O)COCCOCCNC(=O)COCCOCCNC(=O)CC[C@H](NC(=O)CCCCCCCCCCOc1ccc(C(=O)O)cc1)C(=O)O)C(=O)NCC(=O)NCC(=O)N1CCC[C@H]1C(=O)N[C@@H](CO)C(=O)N[C@@H](CO)C(=O)NCC(=O)N[C@@H](C)C(=O)N1CCC[C@H]1C(=O)N1CCC[C@H]1C(=O)N1CCC[C@H]1C(=O)N[C@@H](CO)C(N)=O [Example 442] | 92.1% | 0.0129 nM | 113% | 0.285 nM | > 9950 nM | > 9950 nM | – |
| CC[C@H](C)[C@H](NC(=O)[C@H](CC(C)C)NC(=O)[C@](C)(Cc1ccc(O)cc1)NC(=O)[C@@H](CCC(=O)O)NC(=O)[C@@H](NC(=O)[C@H](Cc1ccccc1)NC(=O)[C@H](CCC(=O)O)NC(=O)C(C)(C)NC(=O)[C@H](CCC(N)=O)NC(=O)[C@H](C)NC(=O)[C@H](CCCCNC(=O)COCCOCCNC(=O)CC[C@H](NC(=O)CCCCCCCCCCCCC(=O)O)C(=O)O)NC(=O)[C@H](CCCN)NC(=O)[C@H](CC(=O)O)NC(=O)[C@H](CC(C)C)NC(=O)[C@](C)(CC(C)C)NC(=O)[C@@H](NC(=O)[C@H](CO)NC(=O)[C@H](Cc1ccncc1)NC(=O)[C@H](CC(=O)O)NC(=O)[C@H](CO)NC(=O)[C@@H](NC(=O)[C@](C)(Cc1ccccc1F)NC(=O)[C@@H](NC(=O)CNC(=O)[C@H](CCC(=O)O)NC(=O)C(C)(C)NC(=O)[C@@H](N)Cc1ccc(O)cc1)[C@@H](C)O)[C@@H](C)O)[C@@H](C)CC)[C@@H](C)CC)C(=O)N[C@@H](CCC(=O)O)C(=O)NCC(=O)NCC(=O)N[C@@H](CCCCNC(=O)COCCOCCNC(=O)CC[C@H](NC(=O)CCCCCCCCCCCCC(=O)O)C(=O)O)C(=O)N[C@@H](CO)C(=O)N[C@@H](CO)C(=O)NCC(=O)N[C@@H](C)C(=O)N1CCC[C@H]1C(=O)N1CCC[C@H]1C(=O)N1CCC[C@H]1C(=O)N[C@@H](CO)C(N)=O [Example 11] | – | – | – | – | – | – | EC50 ([1]; 0.1% bovine casein and 1.0% human serum albumin, 37° C., read-out: hGIPR EC50, nM (SEM, n)): 1.22 nM; Emax ([1]; HEK293, 0.1% bovine casein and 1.0% human serum albumin, 37° C., percent of maximal response to GIP(1-42)NH2, read-out: hGIPR Emax, % ± SEM): 90 ± 2.71%; Emax ([1]; HEK293, percent of maximal response to GIP(1-42)NH2, 37° C., 0.1% bovine casein, arithmetic mean, read-out: hGIPR Emax, % ± SEM): 97.7 ± 2.82%; EC50 ([1]; cAMP, incubated at 37° C., 0.1% bovine casein (no human serum albumin), read-out: hGIPR EC50, nM (SEM, n)): 0.0135 nM; EC50 ([2]; 0.1% bovine casein and 1.0% human serum albumin, 37° C., read-out: hGLP-1R EC50, nM (SEM, n)): 34.5 nM; EC50 ([3]; 0.1% bovine casein and 1.0% human serum albumin, 37° C., geometric mean, read-out: hGCGR EC50, nM (SEM, n)): > 9950 nM; EC50 ([3]; cAMP, incubated at 37° C., 0.1% bovine casein (no human serum albumin), geometric mean, read-out: hGCGR EC50, nM (SEM, n)): > 9950 nM |
| CC[C@H](C)[C@H](NC(=O)[C@H](CC(C)C)NC(=O)[C@](C)(Cc1ccccc1)NC(=O)[C@H](CCCCNC(=O)COCCOCCNC(=O)COCCOCCNC(=O)CC[C@H](NC(=O)CCCCCCCCCCCCC(=O)O)C(=O)O)NC(=O)[C@@H](NC(=O)[C@](C)(Cc1ccccc1)NC(=O)[C@H](CCC(=O)O)NC(=O)C(C)(C)NC(=O)[C@H](CCC(N)=O)NC(=O)[C@H](C)NC(=O)[C@H](CCCCNC(=O)COCCOCCNC(=O)COCCOCCNC(=O)CC[C@H](NC(=O)CCCCCCCCCCCCC(=O)O)C(=O)O)NC(=O)[C@H](CCCN)NC(=O)[C@H](CC(=O)O)NC(=O)[C@H](CC(C)C)NC(=O)[C@](C)(CC(C)C)NC(=O)[C@@H](NC(=O)[C@H](CO)NC(=O)[C@H](Cc1ccncc1)NC(=O)[C@H](CC(=O)O)NC(=O)[C@H](CO)NC(=O)[C@@H](NC(=O)[C@](C)(Cc1ccccc1F)NC(=O)[C@@H](NC(=O)CNC(=O)[C@H](CCC(=O)O)NC(=O)C(C)(C)NC(=O)[C@@H](N)Cc1ccc(O)cc1)[C@@H](C)O)[C@@H](C)O)[C@@H](C)CC)[C@@H](C)CC)C(=O)N[C@@H](CCC(=O)O)C(=O)NCC(=O)NCC(=O)N1CCC[C@H]1C(=O)N[C@@H](CO)C(=O)N[C@@H](CO)C(=O)NCC(=O)N[C@@H](C)C(=O)N1CCC[C@H]1C(=O)N1CCC[C@H]1C(=O)N1CCC[C@H]1C(=O)N[C@@H](CO)C(N)=O [Example 84] | – | – | – | – | – | – | Emax ([1]; HEK293, read-out: hGIPR Emax, % ± SEM, percent of maximal response to GIP(1-42)NH2, 37° C., 0.1% bovine casein, arithmetic mean): 98.5%; Emax ([2]; HEK293, read-out: hGLP-1R Emax, % ± SEM, percent of maximal response to GLP-1(7-36)NH2, 37° C., 0.1% bovine casein): 94%; EC50 ([3]; hGCGR EC50, nM (SEM, n), cAMP, incubated at 37° C., 0.1% bovine casein (no human serum albumin), geometric mean): > 9950 nM |
